In the NIST ThermoML archive (doi:10.1016/j.jct.2016.07.003):
Numbers after ± are expanded uncertainties.

Key:
[1] = osmotic coefficient (dimensionless); mn = molality of the nth substance listed, in mol/kg; settings: 298.15 K, 87 kPa, Liquid, isopiestic method
[2] = mn = molality of the nth substance listed, in mol/kg; settings: 87 kPa, Liquid, Vibrating tube method
[3] = wn = mass fraction of the nth substance listed; settings: 87 kPa, Liquid, Vibrating tube method

CCn1cc[n+](C)c1.O=S(=O)([O-])O [1-ethyl-3-methylimidazolium hydrogen sulfate] + O
[1]
Settings | osmotic coefficient
m1 = 1.038 | 0.895 ± 0.011
m1 = 1.543 | 0.897 ± 0.011
m1 = 1.745 | 0.898 ± 0.011
m1 = 1.961 | 0.9 ± 0.011
m1 = 2.045 | 0.904 ± 0.011
m1 = 2.251 | 0.909 ± 0.011
m1 = 2.534 | 0.915 ± 0.01
m1 = 2.814 | 0.919 ± 0.01
m1 = 3.343 | 0.93 ± 0.01
m1 = 4.042 | 0.948 ± 0.01
m1 = 4.513 | 0.96 ± 0.01
m1 = 5.04 | 0.974 ± 0.01
m1 = 5.663 | 0.993 ± 0.01
m1 = 6.555 | 1.03 ± 0.01
m1 = 6.91 | 1.05 ± 0.01

mass density [kg/m3], [2]
Settings | m1 = 0.0363 | m1 = 0.0687 | m1 = 0.1026 | m1 = 0.1384 | m1 = 0.1716 | m1 = 0.2049 | m1 = 0.2391 | m1 = 0.2718 | m1 = 0.3034 | m1 = 0.3375
293.15 K | 1000.86 ± 3 | 1003.08 ± 3 | 1005.3 ± 3 | 1007.57 ± 3 | 1009.63 ± 3 | 1011.67 ± 3 | 1013.72 ± 3 | 1015.68 ± 3 | 1017.53 ± 3 | 1019.54 ± 3
298.15 K | 999.65 ± 3 | 1001.82 ± 3 | 1003.99 ± 3 | 1006.22 ± 3 | 1008.23 ± 3 | 1010.23 ± 3 | 1012.24 ± 3 | 1014.17 ± 3 | 1016 ± 3 | 1017.98 ± 3
303.15 K | 998.2 ± 3 | 1000.33 ± 3 | 1002.46 ± 3 | 1004.64 ± 3 | 1006.63 ± 3 | 1008.6 ± 3 | 1010.58 ± 3 | 1012.47 ± 3 | 1014.26 ± 3 | 1016.21 ± 3
308.15 K | 996.54 ± 3 | 998.63 ± 3 | 1000.73 ± 3 | 1002.87 ± 3 | 1004.82 ± 3 | 1006.76 ± 3 | 1008.7 ± 3 | 1010.58 ± 3 | 1012.34 ± 3 | 1014.25 ± 3
313.15 K | 994.68 ± 3 | 996.73 ± 3 | 998.8 ± 3 | 1000.91 ± 3 | 1002.83 ± 3 | 1004.74 ± 3 | 1006.66 ± 3 | 1008.5 ± 3 | 1010.24 ± 3 | 1012.13 ± 3

[Cl-].[Li+] [lithium chloride] + O
[1]
Settings | osmotic coefficient
m1 = 0.9064 | 1.02 ± 0.01
m1 = 1.278 | 1.08 ± 0.01
m1 = 1.439 | 1.09 ± 0.01
m1 = 1.616 | 1.09 ± 0.01
m1 = 1.667 | 1.11 ± 0.01
m1 = 1.83 | 1.12 ± 0.01
m1 = 1.99 | 1.16 ± 0.01
m1 = 2.183 | 1.18 ± 0.01
m1 = 2.563 | 1.21 ± 0.01
m1 = 3.014 | 1.27 ± 0.01
m1 = 3.293 | 1.32 ± 0.02
m1 = 3.572 | 1.37 ± 0.02
m1 = 3.952 | 1.42 ± 0.02
m1 = 4.457 | 1.51 ± 0.02
m1 = 4.668 | 1.55 ± 0.02

mass density [kg/m3], [3]
Settings | 293.15 K | 298.15 K | 303.15 K | 308.15 K | 313.15 K
w1 = 0.0346 | – | 1016.17 ± 3.7 | 1014.72 ± 3.7 | 1013.08 ± 3.7 | 1011.25 ± 3.7
w1 = 0.0691 | 1036.35 ± 3.7 | 1035.04 ± 3.7 | 1033.55 ± 3.7 | 1031.8 ± 3.7 | 1030.06 ± 3.7
w1 = 0.1035 | 1055.18 ± 3.7 | 1053.81 ± 3.7 | 1052.33 ± 3.7 | 1050.73 ± 3.7 | 1049.03 ± 3.7
w1 = 0.1379 | 1074.05 ± 3.7 | 1072.65 ± 3.7 | 1071.16 ± 3.7 | 1069.55 ± 3.7 | 1067.85 ± 3.7
